Data: patent US11932850B2, “Cancer chemoprevention with STAT3 blockers” (Jill M. Siegfried, LLC, priority 2018, dated 2024)
Read-outs that look alike come from different tables or passages of the source.

What was measured:
201T cells = test: MTS cell viability assay, 201T; format: cell-based, human
Protocol: NSCLC cell lines (201T and H1975) were transfected with CS3D or CS3M (cyclic STAT3 mutant decoy) at concentrations ranging from 0 nM to 600 nM. Using MTS assays, cell viabilities were assessed 72 hours later. Three independent experiments were performed, using 24-well plates and 4 wells/concentration.
To determine the concentration of CS3D required to inhibit cell viability, increasing concentrations of CS3D was transfected, and after 72 hours, MTS assays were used to assess cell viability. Data were normalized to cells treated with lipofectamine alone.
Fluorescently-labeled CS3M and CS3D (with iFluor) were also produced using enzymatic ligation as described above and used to assess uptake efficiency. Transfections of the cyclic oligonucleotides were performed using Lipofectamine 2000 (Life Technologies) in opti-MEM media (Life Technologies) as follows: Cells were plated at […] confluency, and exposed to transfection media containing the respective circularized oligonucleotides for 24 hours at 37° C. Post-transfection, cell recovery was initiated in media containing 10% heat-inactivated fetal bovine serum.
Dose-response experiments assessing the relative number of metabolically active viable cells were performed by transfecting cells with increasing concentrations of CS3D or CS3M, followed by performance of MTS assays. After 72 hours, 5 mg/ml of MTS reagent was added in the plates and incubated 37° C. for 20 minutes. The plates were then read at 490 nm in a Synergy microplate reader (BioTek, Winooski, Vermont) using Gen5 2.05 software. Data obtained following treatment with C3SD or CS3M were normalized to treatment with lipofectamine alone. […] To assess induction of apoptosis in response to CS3D, H1975 and 201T cells were transfected with 100 nM of CS3M or CS3D. After twenty four hours of transfection, cells were resuspended in annexin V-binding buffer, incubated with 5 μL of propidium iodide (BD Biosciences) and subjected to flow cytometric analysis, using a BD FACS Canto II Flow Cytometer.

H3225 cells = test: MTS cell viability assay, H3225; format: cell-based, human
[1] = tested on: c-Myc mRNA in H1975 cells; test: RT-qPCR of c-Myc mRNA after EGF, H1975; format: cell-based, human; conditions: single transfection, EGF 10 ng/ml 1.5 hr
H1975 xenografts = test: H1975 NSCLC xenograft tumor growth; format: in vivo, nude mice; conditions: 5 mg/kg/d iv, 5 days per week, compared to CS3M
Protocol: Based on the in vitro effects of CS3D, antitumor effects were evaluated in mice harboring established NSCLC xenografts (10 tumors/group). When tumors reached 200 mm3, mice were given daily intravenous injections (tail vein) of CS3D or CS3M (5 mg/kg/d), 5 days per week, and tumor growth was monitored for 14-20 days. CS3D caused a significant and robust tumor growth inhibition in 201T- and H1975-derived xenografts compared to treatment with CS3M.
FIGS. 7A and 7B show CS3D suppresses NSCLC xenograft tumor growth. Intravenous delivery of CS3D inhibits tumor growth in both wild-type (FIG. 7A, 201T) and mutant EGFR T790M (FIG. 7B, H1975) xenografts. Approximately 1×10^6 cells were inoculated subcutaneously in the flanks of nude mice. Following the development of palpable tumors (about […]), mice were randomized and given daily injections of either CS3D or CS3M (5 mg/kg/day; 10 tumors/group). Experiments were done twice as biological replicates. Tumor volumes were recorded every other day while animal weights were also monitored during the course of the treatment. […]
All studies were approved by the University of Minnesota Institutional Animal Care and Use Committee and were carried out in accordance with institutional guidelines for animal care. […] Volumes were calculated from the formula V=(Length×Width^2)/2. […]

[2] = tested on: cleaved caspase-3 in H1975 xenografts; test: IHC of cleaved caspase-3 in H1975 xenografts at end of treatment; format: in vivo, nude mice; conditions: after last day of treatment (day 14)
Text: For mRNA levels in tumor lysates, CS3D produced a 60-70% reduction of c-Myc gene expression relative to GAPDH compared to CS3M (FIG. 7E). […] Some cleaved caspase 3 staining was localized in nuclei, where caspase-3 is known to be active. Some caspase 3 staining was also evident in fibroblasts.
Immunohistochemical analysis: Tumors were excised for immunohistochemical (IHC) staining; 5-μm (micron) sections were cut from formalin-fixed paraffin-embedded tissue blocks, deparaffinized and rehydrated using successive washes of xylene followed by ethanol. Antigen retrieval was performed in a microwave oven (for 20 minutes) in an unmasking solution containing sodium citrate buffer followed by peroxidase blocking in 3% hydrogen peroxide. The sections were incubated in ABC blocking buffer (Vector laboratories Inc, Burlingame, California) for 1 hour at room temperature. Sections were then stained with H&E (hematoxylin and eosin) or subjected to sequential incubations with different primary antibodies and peroxidase-conjugated goat anti-rabbit secondary antibodies. […] Staining was graded as low (<30% positive cells per field, scored as 1), moderate (30-60% positive cells per field, scored as 2) or high (>60% positive cells per field, scored as 3).

[3] = tested on: M1 macrophages, M2 macrophages, MDSCs; test: Flow cytometry of immune cells isolated from lungs of NNK mice; format: in vivo
Text: STAT3 also plays a central role in immune evasion. STAT3 specifically orchestrates immunosuppression by promoting M2 macrophage and myeloid-derived suppressor cells (MDSCs) activity while suppressing M1 macrophage function [Su et al. Int. J. Mol. Science 19: pll:E1803, 2018]. Thus STAT3 inhibition by CS3D should favor an antitumor immune response by enhancing M1 macrophage activity.
Lungs from mice were digested with RPMI media containing collagenase and DNase to obtained single cell suspension. The cells were counted and 1×10^6 cells were staining with fluorescent labeled CD45, CD11b, MHC II, Ly6C and F4/80. The labeled cells were gated and data acquired on LSR fortessa (BD Biosciences) and further analysed by Flowjo.

[4] = NNK 4 weeks then 1 week of drug administration

CS3D (DNA GATTTACGGGAAATGCSCATTTCCC; cyclic decoy with two hexaethylene glycol linkers, further chemistry not given here)
inhibition in proliferation (201T cells; 0.3 μM transfection, 201T, relative to CS3M): 50% | IC50 (201T cells; 201T (WT EGFR), MTS 72 hours, read-out: IC50): ~300 nM | IC50 (201T cells; 201T, EGFR WT, KRAS WT, MTS at 72 hours after transfection, read-out: CS3D IC50): 300 nM | IC50 (H3225 cells): 300 nM | inhibition in mRNA level of c-Myc [1]: 25-30% | reduction in tumor growth (tumor volume) (H1975 xenografts): 81.7% | fields scoring high level of cleaved caspase-3 [2]: 83% | M2 macrophages [3, 4]: 5.53% | MDSCs [3, 4]: 14.2% | proportion of M1 macrophages in the lung TME ([3]; NNK 4 weeks then 1 week of drug, vs CS3M): increasing
